# Legend:
# [1] = system: UO-31; test: NCI five-dose assay; assay type: cell-based, human; details: UO-31, Renal cancer
# [2] = system: SK-MEL-28; test: NCI five-dose assay; assay type: cell-based, human; details: SK-MEL-28, Melanoma
# [3] = system: MDA-MB 231 cell; test: Apoptosis induction assay (Annexin V/PI); assay type: cell-based; details: MDA-MB 231, 24 h
# Procedure: The MDA-MB 231 cell was labeled with Annexin V/PI, cultured for 24 h, and examined to assess the capacity of 7i to induce apoptosis.
# (§1) The MDA-MB231 breast cancer cell line was used for cell cycle study and apoptosis detection. The assay was performed as previously documented (Appendix A).
# [4] = system: 786-0; test: NCI five-dose assay; assay type: cell-based, human; details: 786-0, Renal cancer
# [5] = system: SK-MEL-5; test: NCI five-dose assay; assay type: cell-based, human; details: SK-MEL-5, Melanoma
# [6] = system: Breast cancer subpanel; test: NCI five-dose assay, subpanel mean; assay type: cell-based, human
# [7] = system: PC-3; test: NCI five-dose assay; assay type: cell-based, human; details: PC-3, Prostate cancer
# [8] = system: MDA-MB 231 breast cancer cells; test: Cell cycle analysis; assay type: cell-based; details: MDA-MB 231, 24 h, IC50 concentration of 7i
# Procedure: The impact of compound 7i on cell cycle progression was investigated in MDA-MB 231 breast cancer cells. […] The cell line was handled with PI/Annexin V, and flow cytometry was utilizing a BD FACS Caliber. […] This indicates a cell cycle arrest at the G1 phase transition.
# as §1
# [9] = system: OVCAR-3; test: NCI five-dose assay; assay type: cell-based, human; details: OVCAR-3, Ovarian cancer
# [10] = system: OVCAR-5; test: NCI five-dose assay; assay type: cell-based, human; details: OVCAR-5, Ovarian cancer
# [11] = system: KM12; test: NCI five-dose assay; assay type: cell-based, human; details: KM12, Colon cancer
# [12] = system: SNB-19; test: NCI five-dose assay; assay type: cell-based, human; details: SNB-19, CNS cancer
# [13] = system: SK-MEL-2; test: NCI five-dose assay; assay type: cell-based, human; details: SK-MEL-2, Melanoma
# [14] = system: OVCAR-8; test: NCI five-dose assay; assay type: cell-based, human; details: OVCAR-8, Ovarian cancer
# [15] = Homo sapiens, 48 h, read-out: LC50 (the source's name)
# [16] = Homo sapiens, read-out: GI50 Conc. per Cell Lines
smiles,measurement,setting,value
"O/N=C(\CSc1nnc(-c2c[nH]c3ccccc23)n1-c1ccccc1)c1ccc(Br)cc1 [Compound 7i, (Z)-2-((5-(1H-Indol-3-yl)-4-phenyl-4H-1,2,4-triazol-3-yl)thio)-1-(4-bromophenyl) Ethanone Oxime]",CC50,[1]; [15],34.3 µM
same,GI50,[1]; [16],2.29 µM
same,TGI Conc. per Cell Lines,[1],7.81 µM
same,CC50,[2]; [15],44.8 µM
same,GI50,[2]; [16],3.4 µM
same,TGI Conc. per Cell Lines,[2],12.50 µM
same,necrosis percentage (PI/Annexin upper left quadrant),[3],3.88%
same,TGI Conc. per Cell Lines,[4],27.00 µM
same,LC50 (50% lethal concentration),"[4]; Homo sapiens, 48 h",93.4 µM
same,GI50,[4]; [16],6.85 µM
same,CC50,[5]; [15],35.8 µM
same,GI50,[5]; [16],3.55 µM
same,TGI Conc. per Cell Lines,[5],12.80 µM
same,GI50 Selectivity Ratio (MID a/MID b),[6]; Breast cancer subpanel,1.02
same,GI50,"[6]; Homo sapiens, average sensitivity of all cell lines of the Breast cancer subpanel, read-out: GI50 Subpanel MID b",2.73 µM
same,CC50,[7]; [15],> 100 µM
same,GI50,[7]; [16],2.15 µM
same,TGI Conc. per Cell Lines,[7],4.96 µM
same,cells in G0/G1 phase (%DIP G1),[8],83%
same,LC50,"[9]; Homo sapiens, 48 h",> 100 µM
same,GI50,[9]; [16],4.98 µM
same,TGI Conc. per Cell Lines,[9],23.8 µM
same,LC50,"[10]; Homo sapiens, 48 h",1.59 µM
same,GI50,[10]; [16],2.18 µM
same,TGI Conc. per Cell Lines,[10],5.21 µM
same,CC50,[11]; [15],> 100 µM
same,GI50,[11]; [16],4.15 µM
same,TGI Conc. per Cell Lines,[11],29.20 µM
same,CC50,[12]; [15],84.5 µM
same,GI50,[12]; [16],4.32 µM
same,TGI Conc. per Cell Lines,[12],19.80 µM
same,CC50,[13]; [15],37.5 µM
same,GI50,[13]; [16],3.1 µM
same,TGI Conc. per Cell Lines,[13],10.4 µM
same,CC50,[14]; [15],> 100 µM
same,GI50,[14]; [16],2.45 µM
same,TGI Conc. per Cell Lines,[14],6.50 µM

# Source: PMC11859928, “Design, Synthesis, and Antiproliferative Activity of Novel Indole/1,2,4-Triazole Hybrids as Tubulin Polymerization Inhibitors” (Pharmaceuticals, 2025)
